Consider eight compounds from patent US8901304B1, “Benzo[D]imidazole derivatives of piperidine and piperazine” (King Fahd University of Petroleum and Minerals, priority 2013, dated 2014).

A value given as a limit tells only on which side of the number the result lay.

What is called melting point is the temperature, or range, at which the solid turns liquid. For the compound `O=c1[nH]c2ccc(C3CCN(Cc4ccc(-c5ccccc5)cc4)CC3)cc2[nH]1` [5a, 5-(1-(biphenyl-4-ylmethyl)piperidin-4-yl)-1H-benzo[d]imidazol-2(3H)-one], the melting point was > 260 °C.

In the case of `O=c1[nH]c2ccc(N3CCN(Cc4cncc(-c5ccc(F)cc5)c4)CC3)cc2[nH]1` [6d, 5-(4-((5-(4-fluorophenyl)pyridin-3-yl)methyl)piperazin-1-yl)-1H-benzo[d]imidazol-2(3H)-one], the melting point fell in the range of 246 to 247 °C. With `O=c1[nH]c2ccc(N3CCN(Cc4cccc(C5=CCCC5)c4)CC3)cc2[nH]1` [6e, 5-(4-(3-cyclopentenylbenzyl)piperazin-1-yl)-1H-benzo[d]imidazol-2(3H)-one] the figure was 244 to 245 °C; with `O=c1[nH]c2ccc(C3CCN(Cc4cncc(-c5ccccc5)c4)CC3)cc2[nH]1` [5c, 5-(1-((5-phenylpyridin-3-yl)methyl)piperidin-4-yl)-1H-benzo[d]imidazol-2(3H)-one], 236 to 237 °C. With `O=c1[nH]c2ccc(C3CCN(Cc4cncc(C5=CCCC5)c4)CC3)cc2[nH]1` [5f, 5-(1-((5-cyclopentenylpyridin-3-yl)methyl)piperidin-4-yl)-1H-benzo[d]imidazol-2(3H)-one] the figure was 249 to 250 °C; with `O=c1[nH]c2ccc(N3CCN(Cc4ccc(-c5ccccc5)cc4)CC3)cc2[nH]1` [6a, 5-(4-(biphenyl-4-ylmethyl)piperazin-1-yl)-1H-benzo[d]imidazol-2(3H)-one], > 260 °C; with `O=c1[nH]c2ccc(N3CCN(CC4(F)C=CC(c5ccccc5)=CC4)CC3)cc2[nH]1` (centres unmarked) [6b, 5-(4-((4-Fluorobiphenyl-4-yl)methyl)piperazin-1-yl)-1H-benzo[d]imidazol-2(3H)-one], > 260 °C. With `O=c1[nH]c2ccc(N3CCN(Cc4cncc(C5=CCCC5)c4)CC3)cc2[nH]1` [6f, 5-(4-((5-cyclopentenylpyridin-3-yl)methyl)piperazin-1-yl)-1H-benzo[d]imidazol-2(3H)-one] the figure was 255 to 256 °C.
